Measured values published in ChEMBL document CHEMBL3098003, “Structure-based design of 2-aminopyridine oxazolidinones as potent and selective tankyrase inhibitors” (ACS Med Chem Lett, 2013).
Calls of active or inactive are those of the source. No cut-off for these calls is given here.

Experiments:
Mus musculus [1] = assay: In vivo inhibition of tankyrase-mediated axin2 gene expression in tumor of athymic nude mouse xenografted with human DLD1 cells at 200 mg/kg, po bid for 3 days by STF assay; type: functional, organism-based; parameters: dose 200 mg/kg; conditions: DLD-1
[2] = Terminal plasma concentration in athymic nude mouse xenografted with human DLD1 cells at 200 mg/kg, po bid for 3 days; type: ADME, organism-based, DLD-1; parameters: dose 200 mg/kg, route oral; conditions: read-out: Cp(T)
[3] = Intrinsic clearance in rat liver microsomes; type: ADME; conditions: read-out: CLH
[4] = Intrinsic clearance in human liver microsomes; type: ADME; conditions: read-out: CLH
Tankyrase 1/2 = target: T1, Tankyrase 1/2 (Homo sapiens, UniProt Q9H2K2+O95271); assay: Inhibition of tankyrase in human DLD1 cells assessed as inhibition of Wnt gene transcription after 40 to 48 hrs by STF assay; type: cell-based; conditions: dld-1
T1 sequence (Q9H2K2 whole entry): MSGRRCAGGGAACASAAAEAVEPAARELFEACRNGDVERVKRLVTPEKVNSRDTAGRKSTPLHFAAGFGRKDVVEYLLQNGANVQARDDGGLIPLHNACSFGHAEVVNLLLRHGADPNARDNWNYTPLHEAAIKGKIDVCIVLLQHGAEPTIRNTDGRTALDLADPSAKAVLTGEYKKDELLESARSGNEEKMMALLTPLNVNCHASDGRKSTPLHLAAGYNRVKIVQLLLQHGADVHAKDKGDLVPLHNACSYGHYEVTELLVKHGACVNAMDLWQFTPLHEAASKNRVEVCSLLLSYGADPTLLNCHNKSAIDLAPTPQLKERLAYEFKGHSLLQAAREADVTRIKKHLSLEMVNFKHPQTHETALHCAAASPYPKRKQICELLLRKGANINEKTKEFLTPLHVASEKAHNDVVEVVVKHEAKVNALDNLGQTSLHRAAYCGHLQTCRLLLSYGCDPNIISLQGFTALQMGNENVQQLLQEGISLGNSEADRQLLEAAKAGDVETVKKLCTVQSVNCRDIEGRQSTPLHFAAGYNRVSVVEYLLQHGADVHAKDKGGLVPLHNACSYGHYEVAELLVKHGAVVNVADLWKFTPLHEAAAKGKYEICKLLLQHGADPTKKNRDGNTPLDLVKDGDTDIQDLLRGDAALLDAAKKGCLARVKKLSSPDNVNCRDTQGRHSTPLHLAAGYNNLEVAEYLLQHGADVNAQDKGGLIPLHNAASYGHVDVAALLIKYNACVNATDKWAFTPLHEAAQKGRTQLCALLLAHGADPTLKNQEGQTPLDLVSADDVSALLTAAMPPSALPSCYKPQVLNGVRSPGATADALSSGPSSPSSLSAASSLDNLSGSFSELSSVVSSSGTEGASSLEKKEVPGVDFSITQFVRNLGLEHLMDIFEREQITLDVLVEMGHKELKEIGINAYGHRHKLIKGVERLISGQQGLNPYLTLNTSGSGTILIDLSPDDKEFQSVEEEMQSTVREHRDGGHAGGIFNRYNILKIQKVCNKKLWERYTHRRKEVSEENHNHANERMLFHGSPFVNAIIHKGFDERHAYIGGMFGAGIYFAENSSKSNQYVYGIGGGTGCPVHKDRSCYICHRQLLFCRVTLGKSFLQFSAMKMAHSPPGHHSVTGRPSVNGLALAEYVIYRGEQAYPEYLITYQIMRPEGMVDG
T1 sequence (O95271 whole entry): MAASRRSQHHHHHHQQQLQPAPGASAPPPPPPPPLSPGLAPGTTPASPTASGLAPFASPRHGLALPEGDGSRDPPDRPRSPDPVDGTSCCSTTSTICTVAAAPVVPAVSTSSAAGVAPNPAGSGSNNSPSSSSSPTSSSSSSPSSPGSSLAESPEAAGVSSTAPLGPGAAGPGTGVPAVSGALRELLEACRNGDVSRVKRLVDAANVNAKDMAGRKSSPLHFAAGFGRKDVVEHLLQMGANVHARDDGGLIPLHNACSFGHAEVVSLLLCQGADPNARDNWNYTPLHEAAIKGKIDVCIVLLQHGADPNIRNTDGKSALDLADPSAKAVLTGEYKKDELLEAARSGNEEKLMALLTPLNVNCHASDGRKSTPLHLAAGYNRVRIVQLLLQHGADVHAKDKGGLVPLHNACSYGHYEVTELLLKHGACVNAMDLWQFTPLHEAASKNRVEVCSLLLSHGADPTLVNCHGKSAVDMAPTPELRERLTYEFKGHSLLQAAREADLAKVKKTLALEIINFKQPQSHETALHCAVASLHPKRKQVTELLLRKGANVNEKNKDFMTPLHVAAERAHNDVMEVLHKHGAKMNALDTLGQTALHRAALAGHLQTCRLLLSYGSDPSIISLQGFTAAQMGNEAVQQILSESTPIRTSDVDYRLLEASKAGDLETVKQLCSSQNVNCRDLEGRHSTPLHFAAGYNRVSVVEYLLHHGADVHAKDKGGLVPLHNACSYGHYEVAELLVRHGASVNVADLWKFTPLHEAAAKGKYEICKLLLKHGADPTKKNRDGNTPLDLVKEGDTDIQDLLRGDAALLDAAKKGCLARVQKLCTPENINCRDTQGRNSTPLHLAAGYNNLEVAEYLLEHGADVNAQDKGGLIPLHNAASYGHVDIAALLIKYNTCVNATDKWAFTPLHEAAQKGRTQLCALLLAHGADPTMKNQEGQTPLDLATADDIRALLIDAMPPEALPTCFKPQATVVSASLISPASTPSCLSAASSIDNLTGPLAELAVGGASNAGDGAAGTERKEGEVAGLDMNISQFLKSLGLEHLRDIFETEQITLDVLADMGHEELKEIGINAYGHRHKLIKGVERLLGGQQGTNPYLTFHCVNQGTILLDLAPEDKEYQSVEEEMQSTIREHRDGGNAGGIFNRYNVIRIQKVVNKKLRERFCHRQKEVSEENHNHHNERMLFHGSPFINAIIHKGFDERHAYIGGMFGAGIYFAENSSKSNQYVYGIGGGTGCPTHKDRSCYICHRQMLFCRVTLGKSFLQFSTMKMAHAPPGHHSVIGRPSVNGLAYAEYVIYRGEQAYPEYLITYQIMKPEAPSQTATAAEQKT

Mus musculus [5] = assay: Toxicity in athymic nude mouse assessed as lethargy at 100 mg/kg, po bid for 8 days; type: organism-based; parameters: dose 100 mg/kg, route oral; conditions: in vivo, 192 h
[6] = Terminal plasma concentration in athymic nude mouse xenografted with human DLD1 cells at 50 mg/kg, po bid for 3 days; type: ADME, organism-based, DLD-1; parameters: dose 50 mg/kg, route oral; conditions: read-out: Cp(T)
Substance-P receptor = Substance-P receptor (Homo sapiens, UniProt P25103); assay: Binding affinity to NK1 receptor (unknown origin)
Histamine H1 receptor = Histamine H1 receptor (Homo sapiens, UniProt P35367); assay: Binding affinity to histamine H1 receptor (unknown origin)
[7] = target: C-C chemokine receptor type 2 (Homo sapiens, UniProt P41597); assay: Binding affinity to CCR2 (unknown origin)
Cannabinoid receptor 1 = Cannabinoid receptor 1 (Homo sapiens, UniProt P21554); assay: Binding affinity to CB1 receptor (unknown origin)
Adenosine receptor A2a = Adenosine receptor A2a (Homo sapiens, UniProt P29274); assay: Binding affinity to adenosine A2A receptor (unknown origin)
[8] = target: 5-hydroxytryptamine receptor 1A (Homo sapiens, UniProt P08908); assay: Binding affinity to 5-HT1A receptor (unknown origin)
Sequence of 5-hydroxytryptamine receptor 1A (P08908 whole entry): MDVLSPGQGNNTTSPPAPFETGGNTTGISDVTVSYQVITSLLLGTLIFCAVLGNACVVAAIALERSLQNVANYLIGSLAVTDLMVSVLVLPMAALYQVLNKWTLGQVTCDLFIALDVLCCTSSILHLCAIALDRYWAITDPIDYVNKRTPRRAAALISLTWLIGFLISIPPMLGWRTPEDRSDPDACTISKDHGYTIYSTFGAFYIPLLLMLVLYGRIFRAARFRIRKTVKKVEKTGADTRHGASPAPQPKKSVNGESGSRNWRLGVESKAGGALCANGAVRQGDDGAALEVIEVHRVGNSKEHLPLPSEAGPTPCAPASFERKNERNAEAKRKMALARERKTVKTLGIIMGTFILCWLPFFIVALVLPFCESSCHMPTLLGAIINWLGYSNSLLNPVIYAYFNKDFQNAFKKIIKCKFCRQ

Sequence of Adenosine receptor A2a (P29274 whole entry): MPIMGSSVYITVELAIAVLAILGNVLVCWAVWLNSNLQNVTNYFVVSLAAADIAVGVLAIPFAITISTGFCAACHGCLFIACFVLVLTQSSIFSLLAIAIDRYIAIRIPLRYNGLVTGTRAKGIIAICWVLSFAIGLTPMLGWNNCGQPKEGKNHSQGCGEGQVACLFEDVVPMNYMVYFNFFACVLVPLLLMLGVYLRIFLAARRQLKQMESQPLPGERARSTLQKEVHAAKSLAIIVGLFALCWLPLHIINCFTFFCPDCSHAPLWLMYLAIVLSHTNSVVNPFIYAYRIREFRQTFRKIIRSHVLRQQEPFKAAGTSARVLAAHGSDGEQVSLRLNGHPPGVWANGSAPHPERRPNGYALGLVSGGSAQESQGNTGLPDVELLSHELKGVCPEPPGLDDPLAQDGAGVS
Sequence of C-C chemokine receptor type 2 (P41597 whole entry): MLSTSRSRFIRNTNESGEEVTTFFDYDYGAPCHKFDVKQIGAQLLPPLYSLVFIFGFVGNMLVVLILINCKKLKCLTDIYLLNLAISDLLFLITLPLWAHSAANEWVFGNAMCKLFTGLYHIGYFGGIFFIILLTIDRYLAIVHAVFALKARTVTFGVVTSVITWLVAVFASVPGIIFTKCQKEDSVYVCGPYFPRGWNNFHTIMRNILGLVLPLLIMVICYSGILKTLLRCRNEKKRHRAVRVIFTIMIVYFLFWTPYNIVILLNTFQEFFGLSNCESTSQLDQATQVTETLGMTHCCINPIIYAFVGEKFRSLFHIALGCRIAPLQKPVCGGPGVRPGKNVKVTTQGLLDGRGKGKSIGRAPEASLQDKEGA
Sequence of Histamine H1 receptor (P35367 whole entry): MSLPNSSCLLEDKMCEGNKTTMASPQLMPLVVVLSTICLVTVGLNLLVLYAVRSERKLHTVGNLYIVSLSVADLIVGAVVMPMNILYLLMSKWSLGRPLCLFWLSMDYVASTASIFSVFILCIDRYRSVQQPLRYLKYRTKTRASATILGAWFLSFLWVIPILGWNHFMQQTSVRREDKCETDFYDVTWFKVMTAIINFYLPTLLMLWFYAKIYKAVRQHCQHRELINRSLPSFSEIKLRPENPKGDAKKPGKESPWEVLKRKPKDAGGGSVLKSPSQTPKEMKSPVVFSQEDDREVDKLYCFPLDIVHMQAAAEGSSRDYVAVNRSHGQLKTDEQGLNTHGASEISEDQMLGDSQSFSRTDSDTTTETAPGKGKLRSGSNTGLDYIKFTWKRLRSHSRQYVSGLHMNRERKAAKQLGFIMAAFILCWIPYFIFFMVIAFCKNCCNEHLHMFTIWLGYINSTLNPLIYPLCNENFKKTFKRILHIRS
Sequence of Substance-P receptor (P25103 whole entry): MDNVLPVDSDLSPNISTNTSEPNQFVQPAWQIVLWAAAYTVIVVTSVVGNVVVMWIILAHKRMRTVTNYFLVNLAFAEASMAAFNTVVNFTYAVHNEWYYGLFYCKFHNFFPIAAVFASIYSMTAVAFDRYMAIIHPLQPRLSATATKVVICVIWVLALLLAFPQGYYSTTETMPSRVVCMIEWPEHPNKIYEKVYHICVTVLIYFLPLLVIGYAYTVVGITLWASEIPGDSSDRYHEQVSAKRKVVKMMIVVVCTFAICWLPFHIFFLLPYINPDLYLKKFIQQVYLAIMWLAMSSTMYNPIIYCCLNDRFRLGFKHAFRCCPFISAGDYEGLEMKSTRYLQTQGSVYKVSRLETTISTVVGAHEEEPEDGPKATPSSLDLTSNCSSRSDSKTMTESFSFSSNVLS
Sequence of Cannabinoid receptor 1 (P21554 whole entry): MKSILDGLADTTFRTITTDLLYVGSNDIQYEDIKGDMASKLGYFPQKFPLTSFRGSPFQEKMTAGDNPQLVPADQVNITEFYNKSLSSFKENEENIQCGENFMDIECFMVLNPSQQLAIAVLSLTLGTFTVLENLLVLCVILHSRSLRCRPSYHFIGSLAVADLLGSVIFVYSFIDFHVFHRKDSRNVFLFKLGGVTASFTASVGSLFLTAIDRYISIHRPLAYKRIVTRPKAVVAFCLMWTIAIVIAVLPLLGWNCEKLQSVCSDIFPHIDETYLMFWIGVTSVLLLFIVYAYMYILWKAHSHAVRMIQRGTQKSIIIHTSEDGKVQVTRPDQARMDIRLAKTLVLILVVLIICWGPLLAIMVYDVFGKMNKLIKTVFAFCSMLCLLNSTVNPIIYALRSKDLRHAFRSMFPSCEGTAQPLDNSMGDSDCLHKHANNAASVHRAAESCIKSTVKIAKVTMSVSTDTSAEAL

concentration at 72 h [2]	microsomal CLint [3]	microsomal CLint [4]	IC50 (Tankyrase 1/2)	SMILES	inhibition (Mus musculus [1])	Activity (Mus musculus [5])	concentration at 72 h [6]	IC50 (Substance-P receptor)	IC50 (Histamine H1 receptor)	IC50 [7]	IC50 (Cannabinoid receptor 1)	IC50 (Adenosine receptor A2a)	IC50 [8]
22.1 µM	48 µL/min/mg	33 µL/min/mg	0.096 µM	CC1(C)OC(=O)N(c2ccc(-c3cnc(N)c(-c4ncccn4)c3)cc2)[C@H]1c1ccccc1	Active	–	–	–	–	–	–	–	–
–	–	–	–	CC1(C)OC(=O)N([C@H]2CC[C@H](c3cnc(N)c(-c4ncccn4)c3)CC2)[C@H]1c1ccccc1	–	Toxic	0.12 µM	> 48.5 µM	> 48.5 µM	> 48.5 µM	> 48.5 µM	> 48.5 µM	> 48.5 µM
